A short description of this test: Clinical Experiment 2: weight of type 2 diabetics, acarbose-controlled double-blind study. As to conditions: SZ-A = tablets of Embodiment 1 extract, 50 mg total alkaloids each. The format is in vivo, human. An excerpt: • 1. Objective • Effect of Ramulus Mori extract on reducing weight of diabetics. • 2. Experiment method • 2.1 Grouping • Random, double-blind and double-simulation, parallel control of acarbose tablets, multicenter, non-inferiority were adopted in the study design. A total of 600 patients with type 2 diabetes (aged 18 to 70 years old, 19 kg/m^2≤BMI≤30 kg/m^2, 7%≤HbAlC≤10%) and poor blood glucose control were included, and were randomly divided into a total alkaloid tablet group (SZ-A, N=360) and a acarbose (Glucobay®) group (CON, N=240). All signed informed consents. […] (1) From the Pt to the 24th week of administration, the height, weight and weight gain of each group were observed and recorded every day. […]

Turning to `C[C@H]1O[C@H](O[C@H]2[C@H](O)[C@@H](O)[C@@H](O[C@H]3[C@H](O)[C@@H](O)C(O)O[C@@H]3CO)O[C@@H]2CO)[C@H](O)[C@@H](O)[C@@H]1N[C@H]1C=C(CO)[C@@H](O)[C@H](O)[C@H]1O` (some centres unmarked) [acarbose], the “average change of weight” value by setting is: (type 2 diabetics with BMI≥28 kg/m^2, after 8 weeks of administration) 0.210 kg; (type 2 diabetics with BMI≥28 kg/m^2, after 24 weeks of administration) -0.182 kg.

Source of the values: patent publication US20240156889A1, “A METHOD FOR REDUCING ANIMAL WEIGHT” (BEIJING WEHAND-BIO PHARMACEUTICAL CO., LTD, priority 2021, published 2024).
